Experimental data as given in ChEMBL document CHEMBL5226310, “Synthesis and Characterization of Novel Mono- and Bis-Guanyl Hydrazones as Potent and Selective ASIC1 Inhibitors Able to Reduce Brain Ischemic Insult” (J Med Chem, 2021).
Calls of active or inactive are those of the source. No cut-off for these calls is given here.

Legend:
[1] = target: T1, Acid-sensing ion channel 1 (Homo sapiens, UniProt P78348); experiment: Inhibition of human ASIC1a in HEK293 cells assessed as inward proton-gated current at pH 6.0 incubated with compound followed by PcTx1 addition by patch-clamp electrophysiology; format: cell-based
T1 sequence (P78348 whole entry): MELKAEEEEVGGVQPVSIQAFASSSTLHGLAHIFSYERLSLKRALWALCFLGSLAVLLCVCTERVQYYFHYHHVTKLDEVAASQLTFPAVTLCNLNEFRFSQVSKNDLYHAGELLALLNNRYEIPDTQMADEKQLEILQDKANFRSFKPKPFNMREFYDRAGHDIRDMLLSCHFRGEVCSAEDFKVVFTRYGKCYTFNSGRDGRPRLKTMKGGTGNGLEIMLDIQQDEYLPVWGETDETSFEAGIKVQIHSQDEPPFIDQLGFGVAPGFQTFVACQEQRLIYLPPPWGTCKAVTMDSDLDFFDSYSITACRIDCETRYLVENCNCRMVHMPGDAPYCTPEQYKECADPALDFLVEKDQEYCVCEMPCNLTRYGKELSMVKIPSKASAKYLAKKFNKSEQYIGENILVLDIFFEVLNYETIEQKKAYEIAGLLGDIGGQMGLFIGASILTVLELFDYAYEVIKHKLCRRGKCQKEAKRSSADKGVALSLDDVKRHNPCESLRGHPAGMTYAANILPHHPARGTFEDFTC

[2] = target: T2, Acid-sensing ion channel 1 (Mus musculus) (UniProt Q6NXK8); experiment: Inhibition of mouse ASIC1a expressed in genetically engineered-CHO-K1 cells at 10 uM preincubated for 10 mins at pH 7.4 followed by cell stimulation with proton injection at pH 6.5 by electro-chromic fluorescence voltage sensor-based assay relative to control
T2 sequence (whole entry): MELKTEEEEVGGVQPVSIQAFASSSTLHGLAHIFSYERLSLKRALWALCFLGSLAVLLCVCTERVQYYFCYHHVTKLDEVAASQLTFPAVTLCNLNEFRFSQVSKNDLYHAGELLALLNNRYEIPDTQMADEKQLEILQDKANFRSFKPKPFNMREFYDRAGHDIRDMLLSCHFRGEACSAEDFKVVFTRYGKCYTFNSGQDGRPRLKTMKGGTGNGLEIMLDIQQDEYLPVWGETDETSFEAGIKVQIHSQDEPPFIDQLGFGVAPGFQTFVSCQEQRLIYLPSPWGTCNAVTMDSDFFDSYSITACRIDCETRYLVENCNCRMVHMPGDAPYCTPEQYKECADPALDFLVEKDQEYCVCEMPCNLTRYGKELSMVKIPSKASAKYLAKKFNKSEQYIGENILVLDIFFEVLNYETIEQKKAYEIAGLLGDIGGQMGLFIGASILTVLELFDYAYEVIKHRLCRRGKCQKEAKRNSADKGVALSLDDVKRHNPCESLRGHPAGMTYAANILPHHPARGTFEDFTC

[3] = target: T3, Acid-sensing ion channel 2 (Mus musculus) (UniProt Q925H0); experiment: Inhibition of mouse ASIC2a expressed in genetically engineered-CHO-K1 cells at 10 uM preincubated for 10 mins at pH 7.4 followed by cell stimulation with proton injection at pH 6.5 by electro-chromic fluorescence voltage sensor-based assay relative to control
T3 sequence (whole entry): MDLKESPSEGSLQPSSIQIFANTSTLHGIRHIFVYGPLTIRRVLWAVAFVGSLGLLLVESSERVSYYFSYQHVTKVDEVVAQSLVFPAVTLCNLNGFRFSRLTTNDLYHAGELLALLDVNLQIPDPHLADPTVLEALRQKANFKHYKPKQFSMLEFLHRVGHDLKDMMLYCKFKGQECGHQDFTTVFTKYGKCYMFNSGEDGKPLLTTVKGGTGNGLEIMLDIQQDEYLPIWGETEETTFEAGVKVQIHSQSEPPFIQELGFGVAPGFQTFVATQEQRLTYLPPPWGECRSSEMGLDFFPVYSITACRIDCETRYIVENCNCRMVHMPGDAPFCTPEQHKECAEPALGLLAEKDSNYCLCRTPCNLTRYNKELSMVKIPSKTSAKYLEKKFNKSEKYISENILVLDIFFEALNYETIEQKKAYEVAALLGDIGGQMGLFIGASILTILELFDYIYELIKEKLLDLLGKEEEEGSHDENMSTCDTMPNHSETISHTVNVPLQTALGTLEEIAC

Cortical neurone [4] = experiment: Neuroprotective activity in OGD/Rx-induced E16 Wistar rat Primary cortical neurons assessed as increase in cell viability at 1.41 uM incubated for 3 hrs during OGD followed by reoxygenation with compound re-addition measured after 21 hrs by MTT assay; format: functional, cell-based; details: time 24.0 hrs
Cortical neurone [5] = experiment: Neuroprotective activity in OGD/Rx-induced E16 Wistar rat Primary cortical neurons assessed as increase in cell viability at 1.4 uM incubated for 3 hrs during OGD followed by compound removal and reoxygenation measured after 21 hrs by MTT assay; format: functional, cell-based
Cortical neurone [6] = experiment: Neuroprotective activity in OGD/Rx-induced E16 Wistar rat Primary cortical neurons assessed as increase in cell viability at 2.59 uM incubated for 3 hrs during OGD followed by reoxygenation with compound re-addition measured after 21 hrs by MTT assay; format: functional, cell-based
Cortical neurone [7] = experiment: Neuroprotective activity in OGD/Rx-induced E16 Wistar rat Primary cortical neurons assessed as increase in cell viability at 0.13 uM incubated for 3 hrs during OGD followed by reoxygenation with compound re-addition measured after 21 hrs by MTT assay; format: functional, cell-based; details: time 24.0 hrs
Mus musculus [8] = experiment: Neuroprotective activity in mouse model of middle cerebral artery occlusion-induced transient brain ischemia assessed as decrease in ischemic volume at 0.8 mg/kg, ip administered thrice measured after 24 hrs (reference value: 58 +/- 2.6 %); format: functional; design: scale not given: the % may be the effect or the level left
Mus musculus [9] = experiment: Neuroprotective activity in mouse model of middle cerebral artery occlusion-induced transient brain ischemia assessed as reduction in neurological deficits at 0.8 mg/kg, ip administered thrice measured after 24 hrs; format: functional, organism-based
Cortical neurone [10] = experiment: Neuroprotective activity in OGD/Rx-induced E16 Wistar rat Primary cortical neurons assessed as increase in cell viability at 3.14 uM incubated for 3 hrs during OGD followed by reoxygenation with compound re-addition measured after 21 hrs by MTT assay; format: functional, cell-based; details: time 24.0 hrs
Cortical neurone [11] = experiment: Neuroprotective activity in OGD/Rx-induced E16 Wistar rat Primary cortical neurons assessed as increase in cell viability at 3.14 uM incubated for 3 hrs during OGD followed by compound removal and reoxygenation measured after 21 hrs by MTT assay; format: functional, cell-based
Cortical neurone [12] = experiment: Neuroprotective activity in OGD/Rx-induced E16 Wistar rat Primary cortical neurons assessed as increase in cell viability at 9.5 uM incubated for 3 hrs during OGD followed by reoxygenation with compound re-addition measured after 21 hrs by MTT assay; format: functional, cell-based; details: time 24.0 hrs
Cortical neurone [13] = experiment: Neuroprotective activity in OGD/Rx-induced E16 Wistar rat Primary cortical neurons assessed as increase in cell viability at 2.9 uM incubated for 3 hrs during OGD followed by reoxygenation with compound re-addition measured after 21 hrs by MTT assay; format: functional, cell-based; details: time 24.0 hrs

Row | Structure (SMILES) | IC50 [1] [nM] | inhibition [2] [%] | inhibition [3] [%] | also measured
1 | Cn1nc(-c2ccc(/C=N/NC(=N)N)cc2)cc1-c1ccc(/C=N/NC(=N)N)cc1 | 1420 | 33.1 | 43.9 | Activity (Cortical neurone [4]): Active; Activity (Cortical neurone [5]): Active
2 | N=C(N)N/N=C/c1ccc(-c2cc(-c3ccc(F)cc3)n[nH]2)cc1 | 2590 | 41.6 | 83.6 | Activity (Cortical neurone [6]): Active
3 | N=C(N)N/N=C/c1ccc(-c2cc(-c3ccc(F)cc3)on2)cc1 | 9540 | 24.2 | 95.9 | Activity (Cortical neurone [12]): Active
4 | CC(C)(C)c1ccc(-c2cccc(-c3ccc(/C=N/NC(=N)N)cc3)c2)cc1 | 2950 |  |  | Activity (Cortical neurone [13]): Active

Further lines, with some results ahead:

Row | IC50 [1] [nM] | inhibition [2] [%] | inhibition [3] [%] | Structure (SMILES) | also measured
5 | 972 | -3.26 | 50.6 | Br.Br.C(=N/NC1=NCCN1)/c1ccc(-c2cc(-c3ccc(/C=N/NC4=NCCN4)cc3)[nH]n2)cc1 | Activity (Cortical neurone [7]): Active; Activity (Mus musculus [8]): 40.9%; Activity (Mus musculus [9]): Active
6 | 3140 | 16.8 | 96.6 | Cn1nc(-c2ccc(F)cc2)cc1-c1ccc(/C=N/NC(=N)N)cc1 | Activity (Cortical neurone [10]): Active; Activity (Cortical neurone [11]): Active
